Experimental data as given in patent US5639715A, “Aqueous based drilling fluid additive and composition” (M-I Drilling Fluids LLC, priority 1994, dated 1997).

Experiments:
Type in all cases: physicochemical
[1] = coefficient of friction on sandstone, Lubricity Evaluation Monitor (LEM) (Table 5); settings: 1/2% in 22.5 ppb bentonite slurry
Procedure: The following experiment shower the lubricity properties of surfactants of this invention in 22.5 ppb bentonite slurry in water. The coefficient of friction on sandstone was determined using a Lubricity Evaluation Monitor (LEM) designed by M-I Drilling Fluids Company.

[2] = lubricity coefficient, Baroid lubricity meter (Table 4); settings: 1% solution in deionized water
Procedure: A 1% solution of surfactant as in deionized water was tested on a Baroid lubricity meter (Model No. 21200-EP/Lubricity Tester). The lubricity coefficient of the samples were calculated and recorded in Table 4. Deionized water was used as base.

[3] = surface tension measurement at various concentrations and temperatures
Procedure: The surface tension measurement were carried out on Monawet SNO-35 and coco diethanolamide (CDA) at various concentrations and various temperatures. The following results establish that the higher surface tension values of the products of this invention when compared to the prior art, coco diethanolamide (CDA), would have lower foaming in drilling fluid applications.

For `CCCCCCCCCCCCCCCCCCN(C(=O)CC(C(=O)O)S(=O)(=O)O)C(CC(=O)O)C(=O)O` (stereo not shown) [Monawet SNO-35, tetrasodium N-(1,2-dicarboxyethyl) N-alkyl (C18) sulfosuccinamate], the “% Reduction (coefficient of friction)” value [1] was 73.9%, the “Coefficient of Friction” value [1] was 0.168 and the Lubricity coefficient [2] was “.095”. For the same molecule, the “% Reduction (lubricity coefficient)” value ([2]; versus DI water) was 72%, the “Surface Tension” value ([3]; 0.1% in DI water, 24 °C) was 51 dynes per centimeter and the “Surface Tension” value ([3]; 0.1% in DI water, 38 °C) was 47 dynes per centimeter. For the same molecule, the “Surface Tension” value ([3]; 0.1% in DI water, 43 °C) was 45 dynes per centimeter, the “Surface Tension” value ([3]; 0.1% in DI water, 50 °C) was 44 dynes per centimeter and the “Surface Tension” value ([3]; 1.0% in DI water, 24 °C) was 49 dynes per centimeter. For the same molecule, the “Surface Tension” value ([3]; 1.0% in DI water, 36 °C) was 42 dynes per centimeter, the “Surface Tension” value ([3]; 1.0% in DI water, 45 °C) was 38 dynes per centimeter and the “Surface Tension” value ([3]; 1.0% in DI water, 50 °C) was 37 dynes per centimeter. The “Surface Tension” value ([3]; 2.0% in DI water, 24 °C) was 46 dynes per centimeter, the “Surface Tension” value ([3]; 2.0% in DI water, 38 °C) was 41 dynes per centimeter and the “Surface Tension” value ([3]; 2.0% in DI water, 44 °C) was 39 dynes per centimeter. For the same molecule, the “Surface Tension” value ([3]; 2.0% in DI water, 49 °C) was 37 dynes per centimeter.
